# According to paper PMC7831380 (ACS chemical biology, 2020):
# No end group written: not given here.
# Assay: Overall hydrophobicity from UPLC traces
# Type: physicochemical
# Conditions: Supporting Information Figure S1
row,Substance,overall hydrophobicity compared to wild-type kB1
1,"TRGFEWLDWEFGLPV (also: bicyclic or more (positions not given here)) [[graft1, 16]kB1]",increased overall hydrophobicity
2,"TRWGLPV (also: bicyclic or more (positions not given here)) [[W^mut, 16]kB1]",increased overall hydrophobicity
